The supplement of paper PMC8967900

Key:
Assay in all cases: selective drug sensitivity score (sDSS, relative to normal bone marrow) (sDSS (score)); higher = more potent and effective on the cell line relative to normal bone marrow cells
Conditions in all cases: 72 h
380 = system: 380
ALL-PO = system: ALL-PO
ALL-SIL = system: ALL-SIL
COG-LL-317 = system: COG-LL-317
COG-LL-355h = system: COG-LL-355h
COG-LL-402h = system: COG-LL-402h
DND-41 = system: DND-41
HAL-01 = system: HAL-01
KASUMI-10 = system: KASUMI-10
KASUMI-9 = system: KASUMI-9
KOPN-8 = system: KOPN-8
LC4-1 = system: LC4-1
MOLT-14 = system: MOLT-14
MOLT-16 = system: MOLT-16
NALM-6 = system: NALM-6
P30-OHKUBO = system: P30-OHKUBO
RCH-ACV = system: RCH-ACV
REH = system: REH
SEM cells = system: SEM cells
TANOUE = system: TANOUE
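Also: ALL cell lines in 384-well plates, five doses spanning 10,000-fold, each plate scaled between vehicle and 100 µmol/L benzalkonium chloride controls, sDSS an adapted area-under-curve metric.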

SMILES | selective drug sensitivity score 380 | selective drug sensitivity score (ALL-PO) | selective drug sensitivity score (ALL-SIL) | selective drug sensitivity score (COG-LL-317) | selective drug sensitivity score (COG-LL-355h) | selective drug sensitivity score (COG-LL-402h) | selective drug sensitivity score (DND-41) | selective drug sensitivity score (HAL-01) | selective drug sensitivity score (KASUMI-10) | selective drug sensitivity score (KASUMI-9) | selective drug sensitivity score (KOPN-8) | selective drug sensitivity score (LC4-1) | selective drug sensitivity score (MOLT-14) | selective drug sensitivity score (MOLT-16) | selective drug sensitivity score (NALM-6) | selective drug sensitivity score (P30-OHKUBO) | selective drug sensitivity score (RCH-ACV) | selective drug sensitivity score (REH) | selective drug sensitivity score (SEM cells) | selective drug sensitivity score (TANOUE)
CC(=O)Nc1cccc(-n2c(=O)n(C3CC3)c(=O)c3c(Nc4ccc(I)cc4F)n(C)c(=O)c(C)c32)c1 [Trametinib] (top concentration 250 nM) | 3.56 | -1.44 | -8.04 | -7.74 | 5.06 | -2.54 | 2.16 | 2.36 | -5.34 | -1.14 | 4.36 | 2.46 | 6.96 | -1.94 | 2.86 | -8.04 | -8.04 | -8.04 | -8.04 | -7.74
Nc1ncnc2c1nc(Cl)n2[C@@H]1O[C@H](CO)[C@@H](O)[C@H]1O [8-chloro-adenosine] (top concentration 50000 nM) | -6.3 | 1.6 | -3.4 | 6 | -3.6 | 3.1 | -3.9 | -1.5 | 7.5 | 2.4 | 5.9 | 2.9 | 0.3 | 7.1 | 1.1 | 2.8 | 1.4 | -0.6 | 7.1 | -5.3
CCc1nc(C(N)=O)c(Nc2ccc(N3CCC(N4CCN(C)CC4)CC3)c(OC)c2)nc1NC1CCOCC1 [Gilteritinib] (top concentration 1000 nM) | -2.52 | 2.28 | -2.52 | -2.52 | 2.38 | 1.58 | -2.52 | -1.82 | 10.4 | 2.88 | 3.08 | 0.38 | -2.52 | -2.52 | -2.52 | 7.38 | 2.58 | -2.52 | 4.38 | -2.52
CN1CCc2c(c3ccccc3n2Cc2ccc(C(=O)NO)cc2)C1 [Tubastatin_A] (top concentration 10000 nM) | 11.7 | 3.06 | 3.36 | 1.96 | 3.16 | 7.46 | 2.66 | 1.76 | 2.46 | 8.86 | 9.86 | 6.76 | 1.06 | 2.86 | 1.36 | 6.96 | 8.16 | 5.86 | 4.76 | -0.14
CC1(C)CC[C@]2(NC(=O)C(C)(F)F)CC[C@]3(C)[C@H](C(=O)C=C4[C@@]5(C)C=C(C#N)C(=O)C(C)(C)[C@@H]5CC[C@]43C)[C@@H]2C1 [Omaveloxolone] (top concentration 10000 nM) | 10.9 | 3.08 | 1.28 | 4.88 | 4.88 | 3.38 | 3.98 | 3.58 | 2.58 | 1.88 | 8.68 | 7.38 | 1.58 | 4.88 | 2.58 | 0.68 | 6.28 | 2.58 | 4.88 | -0.52
CC(C)NC(=O)COc1cccc(-c2nc(Nc3ccc4[nH]ncc4c3)c3ccccc3n2)c1 [KD025] (top concentration 5000 nM) | -5.36 | 5.24 | 1.24 | -5.36 | -0.86 | -5.36 | -5.36 | -3.26 | -5.36 | 4.04 | 0.74 | 6.44 | -3.36 | 0.64 | 1.14 | 1.84 | -2.16 | -5.36 | -2.96 | -5.36
CC1CCC(n2c3cnccc3c3cnc(Nc4ccc5c(n4)CCN(C(=O)CO)C5)nc32)CC1 (stereo not given) [AMG-925] (top concentration 1000 nM) | 2.44 | 11.4 | 2.04 | 1.44 | 2.34 | 6.14 | 6.14 | 3.44 | 9.54 | 8.24 | 10.9 | 9.24 | 6.14 | 10.5 | 4.74 | 8.14 | 14.7 | 3.44 | 10 | 1.94
Cc1c(C(=O)Nc2ccc(N3C[C@@H](C)O[C@@H](C)C3)nc2)cccc1-c1ccc(OC(F)(F)F)cc1 [Sonidegib] (top concentration 10000 nM) | -3.92 | 3.98 | 1.08 | -1.02 | -3.92 | -3.92 | 5.08 | -3.92 | 1.38 | 1.48 | 10.5 | 1.08 | 0.38 | 3.18 | 0.98 | 5.68 | 5.78 | 0.98 | -3.92 | -2.42
O=c1[nH]c(C2CCCN2)nc2c1oc1ccc(Cl)cc12 (stereo not given) (top concentration 10000 nM) | 13.1 | -0.2 | 0.6 | 3.3 | 2.1 | -1.5 | -1.1 | 0.2 | -2.7 | -1 | 8.1 | 1.8 | 6.4 | -0.5 | -0.4 | 1.2 | 5.1 | 0.3 | -1.6 | -2.8
